From patent publication US20090062395A1, “RENIN INHIBITORS FOR THE TREATMENT OF HYPERTENSION” (priority 2006, published 2009) come the findings set out here.

Data set [1] has as its system patients. Nature of the data set: Abrupt withdrawal of aliskiren after eight weeks of treatment, compared with placebo (FIG. 3). Format: in vivo, human.
Procedure: In another study, the potential for rebound hypertension following abrupt withdrawal of aliskiren treatment was evaluated in those patients who completed eight weeks of treatment compared to patients that were given a placebo only. The tested doses were 150, 300 and 600 mg of aliskiren.
Data set [2] concerns patients. The data set can be described thus: Long-term study, placebo-controlled randomized withdrawal period from month 11 (visit 10). Format: in vivo, human. To be noted: for Mean change (SD) from Month 11 (Visit 10) in msDBP / Mean change (SD) from Month 11 (Visit 10) in msSBP: continued aliskiren monotherapy 150 or 300 mg. As for the experimental part:
Persistence of effect was examined after a long-term study in which patients were treated for approximately 1 year. Patients were randomly assigned to aliskiren at either 150 mg or 300 mg a day. Aliskiren was increased to 300 mg in those patients who had not responded to 150 mg. Starting at the end of treatment month 2 and 3, investigators adjusted individual therapy in order to achieve a goal BP of <140/90 mm Hg. Subsequent upward dose titration required that BP exceed 140/90 for two consecutive visits. No downward titration of aliskiren was permitted.
At month 11 (visit 10), patients who had been maintained on aliskiren monotherapy entered a placebo-controlled randomized withdrawal study to confirm continued efficacy. Eligible patients were stratified based on dose and randomized in a 1:1 ratio to either continue their current treatment of aliskiren monotherapy (aliskiren 150 mg or aliskiren 300 mg) or be switched to placebo in a double-blind fashion.
The potential for a rebound effect on BP with abrupt treatment withdrawal was evaluated.
Rebound was defined as a rise of >5 mm Hg for diastolic and >10 mm for systolic was used and the results are presented separately.

[3] abbreviates: End point: Month 11 + 28 days or last visit carried forward.
[4] abbreviates: Visit 11, Month 11 + 7 Days, randomized withdrawal ITT population.

Turning to `COCCCOc1cc(C[C@@H](C[C@H](N)[C@@H](O)C[C@H](C(=O)NCC(C)(C)C(N)=O)C(C)C)C(C)C)ccc1OC` [aliskiren, 2(S),4(S),5(S),7(S)—N-(3-amino-2,2-dimethyl-3-oxopropyl)-2,7-di(1-methylethyl)-4-hydroxy-5-amino-8-[4-methoxy-3-(3-methoxy-propoxy)phenyl]-octanamide], the “Patients with msDBP and msSBP values remaining below baseline” value in the data set on patients [1] (4 days and 2 weeks after drug withdrawal, aliskiren 150 mg, 300 mg and 600 mg groups versus placebo group) is “more patients in the aliskiren 150 mg, 300 mg, and 600 mg groups had msDBP and msSBP values that remained below baseline compared with the placebo group”. In addition, the “Persistence of the antihypertensive effect following withdrawal” value in the data set on patients [1] (after eight weeks of aliskiren 150, 300 or 600 mg, study period of two weeks) is listed as “a good persistence of the antihypertensive effect”. Moreover, in the data set on patients [1] (after eight weeks of aliskiren 150, 300 or 600 mg, two weeks after withdrawal), the “Rebound hypertension following abrupt withdrawal” value is reported as “no signs of rebound hypertension”. In addition, the “BP after withdrawal of study drug versus placebo group” value with patients [1] (aliskiren 150, 300 and 600 mg for eight weeks, throughout the drug withdrawal period) was “values still remained lower than those in the placebo group”. Besides, the “Mean change (SD) from Month 11 (Visit 10) in msDBP” value was 1.2 (6.9) mm Hg in the data set on patients [2] (setting [3]); 0.3 (6.8) mm Hg in the data set with patients [2] (setting [4]); 0.3 (6.8) mm Hg in the data set on patients [2] (Visit 12, Month 11 + 14 Days); 0.4 (6.7) mm Hg in the data set on patients [2] (Visit 13, Month 11 + 21 Days); 1.1 (6.8) mm Hg with patients [2] (Visit 14, Month 11 + 28 Days). Also, the “Mean change (SD) from Month 11 (Visit 10) in msSBP” value with patients [2] (setting [3]) was 1.7 (10.1) mm Hg; in the data set with patients [2] (setting [4]), 1.3 (10.3) mm Hg; with patients [2] (Visit 12, Month 11 + 14 Days), 0.3 (10.4) mm Hg; with patients [2] (Visit 13, Month 11 + 21 Days), 0.5 (10.6) mm Hg; in the data set with patients [2] (Visit 14, Month 11 + 28 Days), 1.8 (10.1) mm Hg. Also, the “Persistence of blood pressure lowering effect after withdrawal” value in the data set with patients [2] (patients switched to placebo at month 11 after aliskiren 150 or 300 mg monotherapy) is reported as “a persistence of a blood pressure lowering effect was observed for several weeks after withdrawal”. Also, in the data set with patients [2] (rebound defined as rise of >5 mm Hg diastolic and >10 mm systolic), the “Rebound effect on BP with abrupt treatment withdrawal” value is “no sign of rebound”.
